Data as given in publication PMC8392292 (Biomedicines, 2021).
Structures can show the parent of a compound that is named as a salt. Where two headings read alike, the source gives them in different places.

How the values were obtained:
SARS-CoV-2 RdRp = SARS-CoV-2 RdRp (Severe acute respiratory syndrome coronavirus 2, UniProt P0DTD1); assay: cell-based; assay type: cell-based; conditions: for Effect on SARS-CoV-2 RdRp activity: without nsp7 and nsp8; for inhibition at 100 µM: read-out: Inhibition % of RdRp Activity at Max. Dose; for FLuc activity (internal control): compound at the indicated concentrations
[1] = test system: SARS-CoV-2 RdRp with nsp7 and nsp8; assay type: cell-based; conditions: nsp7 + nsp8 or nsp8-IRES-nsp7 plasmids co-transfected, HEK293T
SARS-CoV-2 = conditions: cited from earlier work
[2] = […], mean ± standard error of the mean, read-out: IC50 of SARS-CoV-2 RdRp activity
[3] = representative experiment, non-linear regression graph, HEK293T, 15 h, read-out: IC50 of SARS-CoV-2 RdRp activity in the figure
[4] = IC50 of SARS-CoV-2 RdRp activity
[5] = HEK-293T, max. dose 100 μM, HEK293T, 15 h

Row | Compound | IC50 (SARS-CoV-2 RdRp; [2]) [µM] | IC50 (SARS-CoV-2 RdRp; [3]) [µM] | inhibition at 100 µM (SARS-CoV-2 RdRp; [5]) [%] | other results
1 | CC(C)(C)C(=O)OCOP(=O)(COCCn1cnc2c(N)ncnc21)OCOC(=O)C(C)(C)C [Adefovir Dipivoxil, adefovir dipivoxil] | 3.78 ± 0.866 | 3.92 |  | 
2 | COc1ccc2cc1Oc1ccc(cc1)C[C@H]1c3c(cc4c(c3Oc3cc5c(cc3OC)CCN(C)[C@@H]5C2)OCO4)CCN1C [Cepharanthine, cepharanthine] |  |  |  | inhibition at 10 µM (SARS-CoV-2 RdRp; HEK-293T, max. dose 10 μM, HEK293T, 15 h): 5.84%; IC50 (SARS-CoV-2 RdRp; [4]): > 10 µM; Effect on SARS-CoV-2 RdRp activity (SARS-CoV-2 RdRp; HEK293T): did not affect; Effect on SARS-CoV-2 RdRp activity (SARS-CoV-2 RdRp; HEK293T, listed as cepharanthine): did not display any inhibitory effect; Effect on SARS-CoV-2 RdRp activity with nsp7 and nsp8 [1]: did not affect; Effect on SARS-CoV-2 RdRp activity with nsp7 and nsp8 ([1]; listed as cepharanthine): did not display any inhibitory effect
3 | Nc1nc(=O)n([C@@H]2CS[C@H](CO)O2)cc1F [Emtricitabine, emtricitabine] |  |  |  | inhibition at 100 µM (SARS-CoV-2 RdRp; HEK-293T): 88.2%; IC50 (SARS-CoV-2 RdRp; [4]): 15.4 ± 3.6 µM; IC50 (SARS-CoV-2 RdRp; IC50 of SARS-CoV-2 RdRp activity in the figure): 13.8 µM
4 | C=C1[C@H](CO)[C@@H](O)C[C@@H]1n1cnc2c(=O)[nH]c(N)nc21 [Entecavir Hydrate, entecavir hydrate] |  |  | 83.1 | 
5 | Cl.O[C@H]1[C@H]2c3cc4c(cc3CN3CCC(=C[C@@H]1O)[C@H]23)OCO4 [Lycorine, lycorine hydrochloride] | 1.47 ± 0.033 | 1.34 |  | FLuc activity (internal control) (SARS-CoV-2 RdRp; HEK293T): remained unchanged; IC50 (SARS-CoV-2): 0.878 ± 0.022 µM
6 | N=C(N)/N=C(\N)N1CCOCC1 [Moroxydine, moroxydine HCl] | 48.9 ± 14.4 | 37.1 | 76.5 | 
7 | CCC(CC)COC(=O)[C@H](C)N[P@](=O)(OC[C@H]1O[C@@](C#N)(c2ccc3c(N)ncnn23)[C@H](O)[C@@H]1O)Oc1ccccc1 [Remdesivir] |  |  |  | FLuc activity (internal control) (SARS-CoV-2 RdRp; HEK293T): maintained; inhibition at 6.7 µM (SARS-CoV-2 RdRp; HEK-293T, max. dose 6.7 μM, HEK293T, 15 h): 71%
8 | CO[C@H]1/C=C/O[C@@]2(C)Oc3c(C)c(O)c4c(O)c(c(/C=N/N5CCN(C)CC5)c(O)c4c3C2=O)NC(=O)/C(C)=C\C=C\[C@H](C)[C@H](O)[C@@H](C)[C@@H](O)[C@@H](C)[C@H](OC(C)=O)[C@@H]1C [Rifampin, rifampin] | 49.4 ± 4.02 | 30.3 |  | 
9 | Cc1cn([C@@H]2C[C@@H](O)[C@H](CO)O2)c(=O)[nH]c1=O [Telbivudine, telbivudine] | 45.9 ± 3.86 | 39.6 | 76.9 | 
